Measurements published in ChEMBL document CHEMBL1201862, “PubChem BioAssay data set” (2004).
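Cells were grown in 96-well plates and exposed to each compound for 48 hours at five concentrations; endpoints were interpolated linearly between bracketing concentrations, or set to the highest concentration if not reached. GI50 = concentration required for 50% inhibition of growth.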 Calls of active or inactive are those of the source. Cut-off read from the data, not from the text of the source: active = GI50 up to about 1.1 µM and inactive = higher.

How the values were obtained:
Experiment in all cases: NCI tumour cell line growth inhibition, 48 h
BT-549 = tested on: BT-549
DMS-273 = tested on: DMS-273
KM-20L2 = tested on: KM-20L2
LXFL 529 = tested on: LXFL 529
M19-MEL = tested on: M19-MEL
XF498 = tested on: XF498
DMS-114 = tested on: DMS-114
HOP-18 = tested on: HOP-18
RXF 631 = tested on: RXF 631

O=C(O)C(Cc1cccs1)C(=O)O
GI50 (BT-549): > 100 µM (inactive)

CC(C)/C(=N\[N+](C)(C)C)c1ccccc1
GI50 (BT-549): > 100 µM (inactive)

COc1ccc(CNc2nc3cc(C(F)(F)F)ccc3nc2C(=O)O)cc1
GI50 (BT-549): 23.3 µM (inactive)

CCC(CC)NC1=C(NC(C)=O)C(=O)c2ccccc2C1=O
GI50 (DMS-273): > 50 µM (inactive) | GI50 (KM-20L2): > 50 µM (inactive) | GI50 (LXFL 529): > 50 µM (inactive) | GI50 (M19-MEL): > 50 µM (inactive) | GI50 (XF498): > 50 µM (inactive)

C=CC1(C)CCC(C(C)C(=O)C(C=C(C)C)OC(C)=O)C12C(=O)Oc1ccccc1C2=O (stereo unspecified)
GI50 (DMS-114): 26 µM (inactive) | GI50 (DMS-273): 23.4 µM (inactive) | GI50 (HOP-18): 95.3 µM (inactive) | GI50 (KM-20L2): 51.3 µM (inactive) | GI50 (LXFL 529): 37.8 µM (inactive) | GI50 (M19-MEL): 26.2 µM (inactive) | GI50 (XF498): 54 µM (inactive)

CCc1c(-c2coc(CC/C(C)=C/c3ccccc3)n2)oc(OC)c(C)c1=O
GI50 (DMS-114): < 0.01 µM (active) | GI50 (DMS-273): 10.1 µM (inactive) | GI50 (HOP-18): > 57.3 µM (inactive) | GI50 (KM-20L2): 28.5 µM (inactive) | GI50 (LXFL 529): 5.96 µM (inactive) | GI50 (M19-MEL): 31.8 µM (inactive) | GI50 (XF498): 17.7 µM (inactive)

Cc1cccc(NC(=O)C(=O)C2C(=O)NC(=O)NC2=O)c1C
GI50 (DMS-114): > 100 µM (inactive) | GI50 (DMS-273): > 100 µM (inactive) | GI50 (HOP-18): > 100 µM (inactive) | GI50 (KM-20L2): > 100 µM (inactive) | GI50 (LXFL 529): > 100 µM (inactive) | GI50 (M19-MEL): > 100 µM (inactive)

Cn1ncc2c(Nc3cccc(Cl)c3)nc(Nc3cccc(Cl)c3)nc21
GI50 (BT-549): 21.8 µM (inactive)

C=C1c2nc3ccccc3n2C=C(c2ccc(Cl)cc2)N1c1ccc(OC)cc1
GI50 (BT-549): 2.67 µM (inactive)

CCN(CC)CCNc1ccc(C)c2sc3ccc(O)cc3c(=O)c12
GI50 (DMS-114): 0.982 µM (active) | GI50 (DMS-273): 0.162 µM (active) | GI50 (HOP-18): 1.34 µM (inactive) | GI50 (KM-20L2): 2.14 µM (inactive) | GI50 (LXFL 529): 1.28 µM (inactive) | GI50 (M19-MEL): 1.1 µM (active) | GI50 (XF498): 1.2 µM (inactive)

O=C(O[C@H](/C=C/c1ccccc1)P1(=O)N(Cc2ccccc2)[C@H]2CCCC[C@@H]2N1Cc1ccccc1)c1ccccc1
GI50 (BT-549): 5.56 µM (inactive)

COC(=O)/C=C1/OC(c2ccccc2)=CC1=O
GI50 (BT-549): 17.7 µM (inactive)

COC(=O)[C@]12CC[C@H]3CN(C(=O)OCc4ccccc4)[C@H]([C@H]31)[C@H](c1ccccc1)N2
GI50 (BT-549): 85.5 µM (inactive)

CCOC(=O)C(Cl)(NC(=O)c1c(F)c(F)c(F)c(F)c1F)C(F)(F)F (stereo unspecified)
GI50 (BT-549): > 100 µM (inactive)

CC12Nc3c(Cl)cc(Cl)cc3N1C(=O)c1ccccc12 (stereo unspecified)
GI50 (BT-549): 71.6 µM (inactive)

CN(C)c1ccc(C2SCC(=O)N2c2nc3cc4sc(N5C(=O)CSC5c5ccc(N(C)C)cc5)nc4cc3s2)cc1 (stereo unspecified)
GI50 (BT-549): 22.9 µM (inactive)

CC#CCCCC1(C)CCNC1=S (stereo unspecified)
GI50 (BT-549): > 10 µM (inactive)

COC(=O)C1=C(C)N(NC(=O)Nc2ccccc2)C2(N)N(NC(=O)Nc3ccccc3)C(C)=C(C(=O)OC)C12C(=O)OC (stereo unspecified)
GI50 (DMS-114): 77.1 µM (inactive) | GI50 (DMS-273): 40.3 µM (inactive) | GI50 (HOP-18): 81.8 µM (inactive) | GI50 (KM-20L2): > 100 µM (inactive) | GI50 (LXFL 529): 62.5 µM (inactive) | GI50 (M19-MEL): 25.1 µM (inactive)

CCC1(O)CN(CCOC)[C@H]2C[C@@H]1C(=O)c1[nH]c3ccccc3c12 (stereo partly specified)
GI50 (BT-549): > 100 µM (inactive)

Oc1nc(CC(O)c2ccc(Cl)c(Cl)c2)cc(-c2ccccc2)n1 (stereo unspecified)
GI50 (DMS-114): 38.9 µM (inactive) | GI50 (DMS-273): > 100 µM (inactive) | GI50 (HOP-18): > 100 µM (inactive) | GI50 (KM-20L2): 60 µM (inactive) | GI50 (LXFL 529): > 100 µM (inactive) | GI50 (M19-MEL): 44.3 µM (inactive)

CC(C)N(C(=O)C12C3(C(=O)OC(C)(C)C)C4C5(C#N)C3C1(C(=O)OC(C)(C)C)C5C42C(=O)OC(C)(C)C)C(C)C (stereo unspecified)
GI50 (BT-549): > 100 µM (inactive)

CSc1c(C#N)c(N)n(-c2ccc(C)cc2)c(=O)c1C#N
GI50 (BT-549): > 100 µM (inactive)

O=C(O)c1cccc(C(=O)O)c1[S+]([O-])Cc1ccccc1 (stereo unspecified)
GI50 (BT-549): > 100 µM (inactive)

COC(=O)C1[C@@H](C(=O)OC)C12C=Cc1ccccc1C=C2 (stereo partly specified)
GI50 (DMS-114): > 100 µM (inactive) | GI50 (DMS-273): > 100 µM (inactive) | GI50 (KM-20L2): > 100 µM (inactive) | GI50 (LXFL 529): > 100 µM (inactive) | GI50 (M19-MEL): > 100 µM (inactive) | GI50 (XF498): 51.6 µM (inactive)

C1CSCCSCCCSCCSCCCSCCSCCCSCCSC1
GI50 (BT-549): > 100 µM (inactive)

CCC(C)C1NC(=O)C(NC(=O)C(CC(C)C)N(C)C(=O)[C@@H]2CC(O)CN2C(=O)[C@H](C)O)C(C)OC(=O)[C@H](Cc2ccc(OC)cc2)N(C)C(=O)[C@@H]2CCCN2C(=O)[C@H](CC(C)C)NC(=O)C(C)C(=O)[C@H](C(C)C)OC(=O)CC1O (stereo partly specified)
GI50 (BT-549): 0.189 µM (active)

CC(C)[Si]1(C(C)C)OCC2OC(n3ccc(=O)[nH]c3=O)C(O)(CO)C2O[Si](C(C)C)(C(C)C)O1 (stereo unspecified)
GI50 (BT-549): 16.8 µM (inactive)

O=C1NC(=O)C(C(=O)C(=O)Nc2cc(Cl)ccc2Cl)C(=O)N1
GI50 (DMS-114): > 100 µM (inactive) | GI50 (KM-20L2): > 100 µM (inactive) | GI50 (LXFL 529): > 100 µM (inactive) | GI50 (M19-MEL): > 100 µM (inactive) | GI50 (RXF 631): > 100 µM (inactive)

N#CC(C#N)=C1C(C#N)=C(N)NC12OCCO2
GI50 (BT-549): > 100 µM (inactive)

CN(C)CCCN1C(=O)N(CCCN(C)C)c2c3cc(O)ccc3nc3c([N+](=O)[O-])ccc1c23
GI50 (BT-549): 17.6 µM (inactive)

Cc1cc(C)c2c(=O)n(CN3CCN(c4ccccc4)CC3)sc2n1
GI50 (BT-549): 63.2 µM (inactive)

COC(=O)CCc1cc(O)c2c(c1)C(C(=O)OC)C(c1ccc(O)c(O)c1)O2 (stereo unspecified)
GI50 (BT-549): 12.5 µM (inactive)

O=C(O)[C@@H]1[C@H](C(=O)O)[C@H](C(=O)O)C[C@@H]1C(=O)O
GI50 (BT-549): > 100 µM (inactive)

NNC(=S)N/N=C(\C(=O)Nc1cccc(O)c1)C1C(=O)NC(=S)NC1=O
GI50 (BT-549): > 100 µM (inactive)

CC(C)=CCc1c(O)c(CC=C(C)C)c2oc(-c3ccc(O)cc3O)c(CC=C(C)C)c(=O)c2c1O
GI50 (BT-549): 7.98 µM (inactive)

COc1cc(/N=C\N(C)C)c2ncccc2c1
GI50 (BT-549): 37.1 µM (inactive)

CC(C)C1=CC2=C(C(=O)C1=O)C13CCCC(C)(C)C1CC2OC3=O (stereo unspecified)
GI50 (BT-549): 16.8 µM (inactive)

COC1/C=C(C)/C=C/C(C)/C=C/C(=O)OC(/C(C)=C/C=C(\C)CNC(=O)[C@H](CO)NC=O)C(C)/C=C/C=C/C(OC)CC/C=C(C)/C=C/C1 (stereo partly specified)
GI50 (BT-549): 0.0581 µM (active)

CC(C)=CCC/C(C)=C/CC/C(C)=C/CC(CO)N(C)CC/C=C(\C)CCC=C(C)C (stereo unspecified)
GI50 (BT-549): 14.1 µM (inactive)

c1ccc2[nH]c3[nH]c4[nH]c5ccccc5[nH]c4[nH]c3[nH]c2c1
GI50 (BT-549): > 100 µM (inactive)
